Measurements as given in patent US20260374753A1, “NOVEL COMPOUND AND PREPARATION METHOD THEREFOR” (ASTRION INC., priority 2023, published 2026).

Legend:
[1] = system: U87-MG; test: Matrigel Transwell invasion (metastasis inhibition) in human glioblastoma; format: cell-based; conditions: 0, 1, 2, and 4 μM, 24 hours, compared to the untreated control
Procedure: A human glioblastoma cell line U87-MG was seeded at a density of 8×10^4 cells/well on Matrigel-coated filters (Transwell invasion chambers, Corning), and the cells were then treated with the compound (AON-MG23-01 or AON-MG23-02; each at 0, 1, 2, and 4 μM) of the present invention, and cultured at 37 °C in a CO2 incubator for 24 hours. After the culturing was completed, the cells were fixed and stained using the Diff-Quick Stain kit (Sysmex, Kobe, Japan). Images of the stained cells were taken under a microscope, the cells were counted using Image J software, and statistical analysis was then performed.

[2] = system: U87-MG cells; test: CCK assay of cell proliferation inhibition in human glioblastoma cells; format: cell-based; conditions: 0, 1, 2, and 4 μM, 48 hours, 450 nm
Procedure: Human glioblastoma cell line U87-MG cells were seeded at a density of 1×10^4 cells/well in a 96-well plate and cultured for 24 hours. Thereafter, the cells were treated with DMSO as a control and the compound AON-MG23-01 or AON-MG23-02 of the present invention, and then cultured for 48 hours. The compound of the present invention was treated at various concentrations of 0, 1, 2, and 4 μM. 10 μL of a CCK reagent was added and reacted for an hour, and the absorbance was then measured at 450 nm.

[3] = system: pEGFR; test: Western blot comparison with EGFR inhibitor and ANO1 inhibitor: pEGFR expression; format: cell-based, human; conditions: U87-MG; 4 μM AON-MG23-02; 48 hours; vs untreated, 2 μM Osimertinib, 100 μM CaCCinh-A01, and their combination
Procedure: (§1) The inhibitory effects of the compound AON-MG23-02 of the present invention, the EGFR inhibitor Osimertinib, and the ANO1 inhibitor CaCCinh-A01 on the expression of ANO1, EGFR, and pEGFR proteins in a glioblastoma cell line were compared. A human glioblastoma cell line U87-MG was seeded at a density of 100×10^4 cells/dish in a 60 mm dish, and cultured for 24 hours. Thereafter, the cells were treated with 4 μM of AON-MG23-02, 2 μM of the EGFR inhibitor Osimertinib, 100 μM of the ANO1 inhibitor CaCCinh-A01, or a combination of 2 μM of Osimertinib and 100 μM of CaCCinh-A01, and cultured for 48 hours. The cultured cells were harvested and the harvested cells were lysed for Western blotting. An anti-ANO1 antibody (Abcam, ab53212), an anti-pEGFR antibody (Cell Signaling, #4407S), an anti-EGFR antibody (Cell Signaling, #4267S), and an anti-ACTIN antibody (sigma, #A2066) were used as antibodies for Western blotting. Protein concentration was quantified using the BSA method (a protein quantitation assay, a bovine serum albumin assay) (Pierce, Cat. 23225). […] The amount of each protein was quantified and analyzed using Image J software.

[4] = system: ANO1; test: Western blot comparison with EGFR inhibitor and ANO1 inhibitor: ANO1 expression; format: cell-based, human; conditions: U87-MG; 4 μM AON-MG23-02; 48 hours; vs untreated, 2 μM Osimertinib, 100 μM CaCCinh-A01, and their combination
Procedure: as §1

[5] = system: U87-MG; test: Matrigel invasion comparison with EGFR inhibitor and ANO1 inhibitor in human glioblastoma; format: cell-based; conditions: 4 μM AON-MG23-02, 16 hours, vs untreated, Osimertinib, 100 μM CaCCinh-A01
Procedure: A human glioblastoma cell line U87-MG was seeded at a density of 6×10^4 cells/well on the top of a Matrigel-coated filter (Transwell invasion chambers, Corning), treated with 4 μM of the compound AON-MG23-02 of the present invention, […] of the EGFR inhibitor Osimertinib, 100 μM of the ANO1 inhibitor CaCCinh-A01, or a combination of 4 μM of Osimertinib and 100 μM of CaCCinh-A01, and then cultured at 37 °C in a CO2 incubator for 16 hours. After the culturing was completed, the cells were fixed and stained using a Diff-Quick stain kit (Sysmex, Kobe, Japan). Images of the stained cells were taken under a microscope, the cells were counted using Image J software, and statistical analysis was then performed.

[6] = system: EGFR; test: Western blot comparison with EGFR inhibitor and ANO1 inhibitor: EGFR expression; format: cell-based, human; conditions: U87-MG; 4 μM AON-MG23-02; 48 hours; vs untreated, 2 μM Osimertinib, 100 μM CaCCinh-A01, and their combination
Procedure: as §1

[7] = system: ANO1; test: Western blot: AON-MG23-02 derivatives, ANO1 protein expression in glioblastoma cell line; format: cell-based, human; conditions: U87-MG; 0, 8, 16, and 32 μM; 48 hours; compared to the untreated control
Procedure: (§2) The inhibitory effects of AON-MG23-02 derivatives AON-MG23-05, AON-MG23-06, AON-MG23-07, and AON-MG23-08 on ANO1 and EGFR protein expression in a glioblastoma cell line were compared. A human glioblastoma cell line U87-MG was seeded at a density of 100×10^4 cells/dish in a 60 mm dish, and cultured for 24 hours. Thereafter, the cells were treated with 0, 8, 16, and 32 μM of the AON-MG23-05, AON-MG23-06, AON-MG23-07, and AON-MG23-08 derivatives, respectively, and cultured for 48 hours. The cultured cells were harvested, and the harvested cells were lysed for Western blotting. An anti-ANO1 antibody (Abcam, ab53212), an anti-pEGFR antibody (Cell Signaling, #4407S), an anti-EGFR antibody (Cell Signaling, #4267S), and an anti-ACTIN antibody (sigma, #A2066) were used as antibodies for Western blotting. Protein concentration was quantified using the […] (a protein quantitation assay, a bovine serum albumin assay) (Pierce, Cat. 23225). […] The amount of each protein was quantified and analyzed using Image J software.

[8] = system: U87-MG; test: Matrigel invasion (metastasis inhibition) of AON-MG23-02 derivatives in human glioblastoma; format: cell-based; conditions: 0, 8, 16, and 32 μM, 24 hours, compared to the untreated control
Procedure: A human glioblastoma cell line U87-MG was seeded at a density of 8×10^4 cells/well on the top of a Matrigel-coated filter (Transwell invasion chambers, Corning), and then treated with 0, 8, 16, and 32 μM of each of the compound derivatives AON-MG23-05, AON-MG23-06, AON-MG23-07, and AON-MG23-08 of the present invention, and cultured at 37 °C in a CO2 incubator for 24 hours. After the culturing was completed, the cells were fixed and stained using a Diff-Quick stain kit (Sysmex, Kobe, Japan). Images of the stained cells were taken under a microscope, the cells were counted using Image J software, and statistical analysis was then performed.

[9] = system: EGFR; test: Western blot: AON-MG23-02 derivatives, EGFR protein expression in glioblastoma cell line; format: cell-based, human; conditions: U87-MG; 0, 8, 16, and 32 μM; 48 hours; compared to the untreated control
Procedure: as §2

## COc1cc(N2CCC(N3CCN(C)CC3)CC2)ccc1Nc1ncc(Cl)c(Nc2ccccc2N(C2CC2)S(C)(=O)=O)n1 [AON-MG23-01, N-(2-((5-chloro-2-((2-methoxy-4-(4-(4-methylpiperazin-1-yl)piperidin-1-yl)phenyl)amino)pyrimidin-4-yl)amino)phenyl)-N-cyclopropylmethanesulfonamide]
[1]
  degree of penetration into Matrigel: reduced degree of penetration into Matrigel compared to the untreated control
[2]
  inhibition of proliferation of U87-MG cells: inhibits the proliferation of U87-MG cells

## COc1cc(N2CCC(N(C)C)CC2)ccc1Nc1ncc(Cl)c(Nc2ccccc2N(C2CC2)S(C)(=O)=O)n1 [AON-MG23-02, N-(2-((5-chloro-2-((4-(4-(dimethylamino)piperidin-1-yl)-2-methoxyphenyl)amino)pyrimidin-4-yl)amino)phenyl)-N-cyclopropylmethanesulfonamide]
[3]
  expression of pEGFR protein (comparison): reduces the expression of ANO1, EGFR, and pEGFR proteins compared to the untreated control, the EGFR inhibitor-treated group, the ANO1 inhibitor-treated group, and the EGFR inhibitor and ANO1 inhibitor combination-treated group
[4]
  expression of ANO1 protein (comparison): reduces the expression of ANO1, EGFR, and pEGFR proteins compared to the untreated control, the EGFR inhibitor-treated group, the ANO1 inhibitor-treated group, and the EGFR inhibitor and ANO1 inhibitor combination-treated group
[5]
  degree of penetration into Matrigel (comparison with EGFR inhibitor and ANO1 inhibitor): reduced degree of penetration into Matrigel compared to the untreated control, the EGFR inhibitor-treated group, and the ANO1 inhibitor-treated group
[1]
  degree of penetration into Matrigel: reduced degree of penetration into Matrigel compared to the untreated control
[6]
  expression of EGFR protein (comparison): reduces the expression of ANO1, EGFR, and pEGFR proteins compared to the untreated control, the EGFR inhibitor-treated group, the ANO1 inhibitor-treated group, and the EGFR inhibitor and ANO1 inhibitor combination-treated group
[2]
  inhibition of proliferation of U87-MG cells: inhibits the proliferation of U87-MG cells

## O=C1c2ccccc2CN1Cc1ccc(CCN(CCO)Cc2ccc3ccccc3c2)cc1 [AON-MG23-05, 2-(4-(2-((2-hydroxyethyl)(naphthalen-2-ylmethyl)amino)ethyl)benzyl)isoindolin-1-one]
[7]
  expression of ANO1 protein (derivatives): reduced expression of ANO1 and EGFR proteins compared to the untreated control
[8]
  degree of penetration into Matrigel (derivatives): reduced degree of penetration into Matrigel compared to the untreated control
[9]
  expression of EGFR protein (derivatives): reduced expression of ANO1 and EGFR proteins compared to the untreated control

## CCN(Cc1ccc2ccccc2c1)CC(O)c1ccc(CN2Cc3ccccc3C2=O)cc1 (stereo not shown) [AON-MG23-06, 2-(4-(2-(ethyl(naphthalen-2-ylmethyl)amino)-1-hydroxyethyl)benzyl)isoindolin-1-one]
[8]
  degree of penetration into Matrigel (derivatives): reduced degree of penetration into Matrigel compared to the untreated control

## O=C1c2ccccc2CN1Cc1ccc(CCP(=O)(Cc2ccc3ccccc3c2)Cc2ccc3ccccc3c2)cc1 [AON-MG23-07, 2-(4-(2-(bis(naphthalen-2-ylmethyl)phosphoryl)ethyl)benzyl)isoindolin-1-one]
[8]
  degree of penetration into Matrigel (derivatives): reduced degree of penetration into Matrigel compared to the untreated control

## NC(=O)N(CCc1ccc(CN2Cc3ccccc3C2=O)cc1)Cc1ccc2ccccc2c1 [AON-MG23-08, 1-(naphthalen-2-ylmethyl)-1-(4-((1-oxoisoindolin-2-yl)methyl)phenethyl)urea]
[7]
  expression of ANO1 protein (derivatives): reduced expression of ANO1 and EGFR proteins compared to the untreated control
[8]
  degree of penetration into Matrigel (derivatives): reduced degree of penetration into Matrigel compared to the untreated control
[9]
  expression of EGFR protein (derivatives): reduced expression of ANO1 and EGFR proteins compared to the untreated control
